Experimental data taken from the supplement of paper PMC12076712.
± gives the standard deviation of the averaged measurements.

Key:
Assay in all cases: pIC50, kinobeads binding competition
Settings in all cases: cell material: Jurkat lysate
PRKACB = PRKACB (UniProt P22694)
UniProt P45985 = target: T1, UniProt P45985
T1 sequence (whole entry): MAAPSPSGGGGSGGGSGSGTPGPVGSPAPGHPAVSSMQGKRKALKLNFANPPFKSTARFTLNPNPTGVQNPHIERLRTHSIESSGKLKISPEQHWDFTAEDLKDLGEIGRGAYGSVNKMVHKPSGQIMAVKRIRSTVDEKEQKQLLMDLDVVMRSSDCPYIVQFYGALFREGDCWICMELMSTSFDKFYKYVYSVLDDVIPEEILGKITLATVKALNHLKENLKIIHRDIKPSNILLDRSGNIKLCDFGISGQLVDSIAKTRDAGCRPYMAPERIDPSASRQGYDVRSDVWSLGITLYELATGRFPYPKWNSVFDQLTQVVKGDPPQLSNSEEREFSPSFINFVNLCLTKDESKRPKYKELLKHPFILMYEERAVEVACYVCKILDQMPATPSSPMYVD

UniProt O75460 = target: UniProt O75460
Sequence of UniProt O75460 (O75460 whole entry, looked up): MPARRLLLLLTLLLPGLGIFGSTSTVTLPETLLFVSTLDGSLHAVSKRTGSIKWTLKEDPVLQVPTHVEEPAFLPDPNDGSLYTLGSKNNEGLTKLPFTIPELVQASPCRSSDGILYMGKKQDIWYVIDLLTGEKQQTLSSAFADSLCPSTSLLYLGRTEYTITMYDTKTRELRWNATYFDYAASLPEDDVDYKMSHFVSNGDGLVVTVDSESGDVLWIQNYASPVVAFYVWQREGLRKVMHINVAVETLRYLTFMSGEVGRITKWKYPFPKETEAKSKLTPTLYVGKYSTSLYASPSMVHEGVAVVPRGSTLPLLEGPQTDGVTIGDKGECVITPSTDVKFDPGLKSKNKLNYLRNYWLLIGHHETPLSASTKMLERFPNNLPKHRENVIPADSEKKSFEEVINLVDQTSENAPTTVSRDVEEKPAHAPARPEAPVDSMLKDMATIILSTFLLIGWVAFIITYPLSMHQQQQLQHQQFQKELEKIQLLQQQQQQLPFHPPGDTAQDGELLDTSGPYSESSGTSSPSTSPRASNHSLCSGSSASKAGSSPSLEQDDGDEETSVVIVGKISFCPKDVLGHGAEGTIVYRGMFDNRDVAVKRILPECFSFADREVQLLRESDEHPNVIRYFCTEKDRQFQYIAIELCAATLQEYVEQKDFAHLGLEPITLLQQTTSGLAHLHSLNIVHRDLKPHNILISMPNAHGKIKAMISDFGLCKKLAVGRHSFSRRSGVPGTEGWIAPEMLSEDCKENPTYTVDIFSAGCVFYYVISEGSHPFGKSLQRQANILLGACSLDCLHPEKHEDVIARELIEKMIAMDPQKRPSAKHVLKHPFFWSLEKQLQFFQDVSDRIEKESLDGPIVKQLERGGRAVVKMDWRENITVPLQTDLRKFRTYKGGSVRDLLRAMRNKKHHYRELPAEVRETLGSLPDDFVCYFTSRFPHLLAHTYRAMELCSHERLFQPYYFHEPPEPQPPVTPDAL

KSR1 = target: T2, KSR1 (UniProt Q8IVT5)
T2 sequence (whole entry): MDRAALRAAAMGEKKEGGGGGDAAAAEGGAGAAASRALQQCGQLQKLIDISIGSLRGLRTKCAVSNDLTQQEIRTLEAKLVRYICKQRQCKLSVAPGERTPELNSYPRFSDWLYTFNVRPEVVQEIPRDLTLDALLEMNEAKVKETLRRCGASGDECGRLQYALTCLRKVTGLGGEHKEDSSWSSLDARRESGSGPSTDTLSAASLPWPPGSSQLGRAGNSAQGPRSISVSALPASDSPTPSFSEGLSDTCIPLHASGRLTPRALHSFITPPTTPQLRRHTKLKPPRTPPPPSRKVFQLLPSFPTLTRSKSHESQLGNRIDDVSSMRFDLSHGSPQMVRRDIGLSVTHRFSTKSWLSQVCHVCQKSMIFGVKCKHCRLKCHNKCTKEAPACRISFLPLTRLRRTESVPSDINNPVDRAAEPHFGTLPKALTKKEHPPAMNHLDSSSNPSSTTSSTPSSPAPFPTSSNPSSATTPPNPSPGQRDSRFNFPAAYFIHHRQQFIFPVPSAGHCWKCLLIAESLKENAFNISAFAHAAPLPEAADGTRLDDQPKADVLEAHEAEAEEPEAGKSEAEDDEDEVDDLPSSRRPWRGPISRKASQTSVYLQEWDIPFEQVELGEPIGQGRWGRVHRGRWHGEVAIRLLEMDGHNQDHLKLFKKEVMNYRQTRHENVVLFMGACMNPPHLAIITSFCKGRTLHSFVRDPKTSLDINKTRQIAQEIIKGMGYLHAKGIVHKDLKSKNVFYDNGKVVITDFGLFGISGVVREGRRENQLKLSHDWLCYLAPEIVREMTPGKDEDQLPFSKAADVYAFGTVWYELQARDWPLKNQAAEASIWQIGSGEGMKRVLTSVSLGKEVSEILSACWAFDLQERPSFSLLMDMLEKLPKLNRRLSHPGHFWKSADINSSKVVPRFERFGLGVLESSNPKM

ACVR1 = target: T3, ACVR1 (UniProt Q04771)
T3 sequence (whole entry): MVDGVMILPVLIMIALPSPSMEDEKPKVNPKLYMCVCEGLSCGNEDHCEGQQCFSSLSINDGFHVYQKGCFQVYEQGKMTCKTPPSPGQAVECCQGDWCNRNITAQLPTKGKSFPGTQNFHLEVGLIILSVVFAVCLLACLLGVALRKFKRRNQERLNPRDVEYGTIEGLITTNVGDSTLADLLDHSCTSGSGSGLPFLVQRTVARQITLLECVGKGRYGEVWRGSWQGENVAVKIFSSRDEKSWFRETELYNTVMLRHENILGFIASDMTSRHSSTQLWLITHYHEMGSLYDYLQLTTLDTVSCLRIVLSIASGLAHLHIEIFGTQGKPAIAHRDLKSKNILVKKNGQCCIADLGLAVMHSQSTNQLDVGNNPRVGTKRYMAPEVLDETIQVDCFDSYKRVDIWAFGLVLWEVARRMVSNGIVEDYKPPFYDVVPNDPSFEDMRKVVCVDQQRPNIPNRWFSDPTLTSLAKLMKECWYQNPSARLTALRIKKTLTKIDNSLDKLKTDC

TAOK3 = TAOK3 (UniProt Q9H2K8)
Sequence of TAOK3 (Q9H2K8 whole entry, looked up): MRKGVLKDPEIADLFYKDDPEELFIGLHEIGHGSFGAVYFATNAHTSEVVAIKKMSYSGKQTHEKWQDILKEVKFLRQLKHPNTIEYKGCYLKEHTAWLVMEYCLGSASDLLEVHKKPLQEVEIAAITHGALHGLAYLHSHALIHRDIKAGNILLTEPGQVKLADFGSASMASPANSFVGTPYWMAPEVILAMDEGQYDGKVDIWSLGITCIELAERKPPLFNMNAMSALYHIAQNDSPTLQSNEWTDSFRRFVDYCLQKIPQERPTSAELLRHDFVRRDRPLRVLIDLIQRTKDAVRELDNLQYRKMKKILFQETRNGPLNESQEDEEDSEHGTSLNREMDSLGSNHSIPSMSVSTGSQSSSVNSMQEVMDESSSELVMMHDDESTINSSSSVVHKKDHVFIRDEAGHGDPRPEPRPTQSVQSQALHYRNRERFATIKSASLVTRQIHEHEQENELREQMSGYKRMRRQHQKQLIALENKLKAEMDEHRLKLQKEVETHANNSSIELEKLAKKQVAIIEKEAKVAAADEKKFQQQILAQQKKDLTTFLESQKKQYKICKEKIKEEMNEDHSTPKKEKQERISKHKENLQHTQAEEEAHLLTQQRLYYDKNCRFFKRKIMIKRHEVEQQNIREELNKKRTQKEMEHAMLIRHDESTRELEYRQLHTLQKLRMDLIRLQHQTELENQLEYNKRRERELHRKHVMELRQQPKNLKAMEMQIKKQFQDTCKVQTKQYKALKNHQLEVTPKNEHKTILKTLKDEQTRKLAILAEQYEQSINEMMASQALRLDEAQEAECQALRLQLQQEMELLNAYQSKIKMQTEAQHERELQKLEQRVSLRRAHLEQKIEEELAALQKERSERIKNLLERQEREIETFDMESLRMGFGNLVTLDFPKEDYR

UniProt O75716 = target: UniProt O75716
Sequence of UniProt O75716 (O75716 whole entry): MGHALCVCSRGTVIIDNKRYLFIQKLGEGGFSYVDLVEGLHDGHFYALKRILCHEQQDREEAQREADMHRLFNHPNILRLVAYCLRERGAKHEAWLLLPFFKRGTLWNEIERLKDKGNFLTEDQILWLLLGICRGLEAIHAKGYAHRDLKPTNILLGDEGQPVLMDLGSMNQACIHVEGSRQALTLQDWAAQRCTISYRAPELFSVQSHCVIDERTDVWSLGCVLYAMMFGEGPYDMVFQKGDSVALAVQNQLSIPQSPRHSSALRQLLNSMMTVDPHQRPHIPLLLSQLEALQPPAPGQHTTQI

UniProt Q9HCP0 = target: UniProt Q9HCP0
Sequence of UniProt Q9HCP0 (Q9HCP0 whole entry, looked up): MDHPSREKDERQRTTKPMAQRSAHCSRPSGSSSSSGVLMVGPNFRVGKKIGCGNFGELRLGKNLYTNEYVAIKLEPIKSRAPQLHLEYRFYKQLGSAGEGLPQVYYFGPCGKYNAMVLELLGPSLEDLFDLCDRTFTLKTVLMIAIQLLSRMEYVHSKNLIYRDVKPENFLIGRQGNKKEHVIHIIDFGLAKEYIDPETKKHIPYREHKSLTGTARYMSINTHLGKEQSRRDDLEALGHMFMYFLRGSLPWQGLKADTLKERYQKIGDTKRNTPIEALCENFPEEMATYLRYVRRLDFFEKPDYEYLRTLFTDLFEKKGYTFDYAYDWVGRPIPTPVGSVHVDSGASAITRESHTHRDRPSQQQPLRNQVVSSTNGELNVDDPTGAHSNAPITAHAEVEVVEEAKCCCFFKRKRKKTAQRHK

TNIK = TNIK (UniProt Q9UKE5)
Sequence of TNIK (Q9UKE5 whole entry, looked up): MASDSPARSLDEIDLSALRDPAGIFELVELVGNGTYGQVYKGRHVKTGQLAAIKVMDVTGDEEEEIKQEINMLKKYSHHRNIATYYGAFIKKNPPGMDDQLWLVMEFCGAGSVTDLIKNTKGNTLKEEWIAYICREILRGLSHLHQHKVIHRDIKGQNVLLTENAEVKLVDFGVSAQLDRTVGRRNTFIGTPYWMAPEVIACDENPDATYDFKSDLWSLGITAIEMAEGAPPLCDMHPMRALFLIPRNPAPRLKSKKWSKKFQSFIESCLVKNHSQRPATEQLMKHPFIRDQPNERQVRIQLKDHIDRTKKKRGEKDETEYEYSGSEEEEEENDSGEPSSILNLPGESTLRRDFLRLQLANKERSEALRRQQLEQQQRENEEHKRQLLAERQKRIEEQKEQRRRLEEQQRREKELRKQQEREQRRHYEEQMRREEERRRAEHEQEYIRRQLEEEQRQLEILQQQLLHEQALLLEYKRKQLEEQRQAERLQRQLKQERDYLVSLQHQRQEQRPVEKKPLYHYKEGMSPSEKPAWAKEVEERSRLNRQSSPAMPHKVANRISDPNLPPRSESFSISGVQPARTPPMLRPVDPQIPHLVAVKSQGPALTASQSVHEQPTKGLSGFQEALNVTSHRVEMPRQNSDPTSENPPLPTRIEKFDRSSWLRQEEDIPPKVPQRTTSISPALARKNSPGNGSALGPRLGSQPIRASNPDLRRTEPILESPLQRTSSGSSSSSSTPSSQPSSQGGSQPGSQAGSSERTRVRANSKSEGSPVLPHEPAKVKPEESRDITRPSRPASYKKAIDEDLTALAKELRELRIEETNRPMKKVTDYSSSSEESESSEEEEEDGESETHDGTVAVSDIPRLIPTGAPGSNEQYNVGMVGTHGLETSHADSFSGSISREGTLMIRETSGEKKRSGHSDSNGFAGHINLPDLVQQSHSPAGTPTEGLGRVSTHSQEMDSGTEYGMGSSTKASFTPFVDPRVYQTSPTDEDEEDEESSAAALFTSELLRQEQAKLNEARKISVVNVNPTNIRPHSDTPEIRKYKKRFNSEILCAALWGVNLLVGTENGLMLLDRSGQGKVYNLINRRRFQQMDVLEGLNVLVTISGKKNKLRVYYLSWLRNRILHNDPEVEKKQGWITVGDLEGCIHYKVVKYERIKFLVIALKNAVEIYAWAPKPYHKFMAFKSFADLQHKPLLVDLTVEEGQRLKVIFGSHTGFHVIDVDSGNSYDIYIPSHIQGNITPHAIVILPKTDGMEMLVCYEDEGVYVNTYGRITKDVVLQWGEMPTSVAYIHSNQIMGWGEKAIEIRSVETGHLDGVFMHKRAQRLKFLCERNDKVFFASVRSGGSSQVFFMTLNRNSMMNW

WEE1 = WEE1 (UniProt P30291)
Sequence of WEE1 (P30291 whole entry, looked up): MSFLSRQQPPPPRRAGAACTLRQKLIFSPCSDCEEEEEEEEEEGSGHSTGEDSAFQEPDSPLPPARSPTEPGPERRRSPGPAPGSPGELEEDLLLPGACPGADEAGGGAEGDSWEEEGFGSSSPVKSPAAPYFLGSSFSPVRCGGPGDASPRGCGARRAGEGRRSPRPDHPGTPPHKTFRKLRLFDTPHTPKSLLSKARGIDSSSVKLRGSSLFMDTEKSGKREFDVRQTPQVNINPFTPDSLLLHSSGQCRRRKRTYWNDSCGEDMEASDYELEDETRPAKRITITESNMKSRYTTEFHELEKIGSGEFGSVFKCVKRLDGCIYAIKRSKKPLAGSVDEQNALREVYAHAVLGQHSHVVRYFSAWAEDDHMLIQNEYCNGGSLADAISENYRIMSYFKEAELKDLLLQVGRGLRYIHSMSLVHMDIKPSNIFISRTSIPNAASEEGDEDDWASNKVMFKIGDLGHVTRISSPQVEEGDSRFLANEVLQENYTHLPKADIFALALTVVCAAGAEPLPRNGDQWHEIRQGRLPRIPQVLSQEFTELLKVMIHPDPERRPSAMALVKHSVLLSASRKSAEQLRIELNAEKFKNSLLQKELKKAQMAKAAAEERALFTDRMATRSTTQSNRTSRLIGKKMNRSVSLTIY

UniProt Q14289 = target: UniProt Q14289
UniProt Q13188 = target: T4, UniProt Q13188
T4 sequence (whole entry): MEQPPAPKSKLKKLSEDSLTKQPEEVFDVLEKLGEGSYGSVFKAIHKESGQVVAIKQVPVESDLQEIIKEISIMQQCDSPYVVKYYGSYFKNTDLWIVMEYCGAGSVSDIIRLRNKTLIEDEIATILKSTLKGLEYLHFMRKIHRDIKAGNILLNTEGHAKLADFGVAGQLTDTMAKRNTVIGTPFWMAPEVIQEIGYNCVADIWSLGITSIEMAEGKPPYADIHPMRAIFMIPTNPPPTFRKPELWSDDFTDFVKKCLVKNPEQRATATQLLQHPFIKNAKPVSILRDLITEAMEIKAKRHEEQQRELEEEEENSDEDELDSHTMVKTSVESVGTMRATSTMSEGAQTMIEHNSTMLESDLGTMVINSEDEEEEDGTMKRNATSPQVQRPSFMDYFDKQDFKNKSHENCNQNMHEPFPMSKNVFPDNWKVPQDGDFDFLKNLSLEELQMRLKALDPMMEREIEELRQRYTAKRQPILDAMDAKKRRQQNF

CCc1cnn2c(NCc3ccc[n+]([O-])c3)cc(N3CCCC[C@H]3CCO)nc12 [dinaciclib]
pIC50 (PRKACB): < 4.52 | pIC50 (UniProt P45985): < 4.52 | pIC50 (UniProt O75460): < 4.52 | pIC50 (KSR1): < 4.52 | pIC50 (ACVR1): < 4.52 | pIC50 (TAOK3): 5.79 ± 0.13 | pIC50 (UniProt O75716): < 4.52 | pIC50 (UniProt Q9HCP0): < 4.52 | pIC50 (TNIK): < 4.52 | pIC50 (WEE1): < 4.52 | pIC50 (UniProt Q14289): < 4.52 | pIC50 (UniProt Q13188): < 4.52
